# From patent publication US10799494B2, “Combination of respiratory electron transport chain inhibitors with a cytochrome bd inhibitor” (priority 2015, dated 2020)
# Biological target: M. tuberculosis cytochrome bd-I (Mycobacterium tuberculosis, UniProt L7N662)
# Test: not given
# Assay type: biochemical
# Conditions: not given
# M. tuberculosis cytochrome bd-I, sequence (L7N662 1-485): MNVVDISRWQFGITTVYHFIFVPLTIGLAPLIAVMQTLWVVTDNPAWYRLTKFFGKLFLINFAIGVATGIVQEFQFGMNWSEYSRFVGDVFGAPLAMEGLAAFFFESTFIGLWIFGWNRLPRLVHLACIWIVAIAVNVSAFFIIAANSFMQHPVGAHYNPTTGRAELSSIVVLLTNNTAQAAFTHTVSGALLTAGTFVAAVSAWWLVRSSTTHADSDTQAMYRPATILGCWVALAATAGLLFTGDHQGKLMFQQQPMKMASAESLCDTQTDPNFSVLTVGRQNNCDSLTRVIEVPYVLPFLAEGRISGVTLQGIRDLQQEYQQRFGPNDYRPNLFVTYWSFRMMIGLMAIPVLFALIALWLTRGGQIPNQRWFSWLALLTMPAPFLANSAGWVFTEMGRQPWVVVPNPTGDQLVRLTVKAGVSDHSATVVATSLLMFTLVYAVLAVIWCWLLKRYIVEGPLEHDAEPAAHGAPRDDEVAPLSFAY
row,Compound,inhibition @ 1 uM (% of cntls)
1,"CCOC(=O)c1c(-c2ccc(-c3ccc(OC(F)(F)F)cc3)cc2)[nH]c2ccccc2c1=O [WDH-1V-10, Ethyl 4-oxo-2-(4′-(trifluoromethoxy)-[1,1′-biphenyl]-4-yl)-1,4-dihydroquinoline-3-carboxylate]",79.4 % of cntls
2,"Cc1c(-c2ccc(Cc3ccc(OC(F)(F)F)cc3)cc2)[nH]c2c(O)cccc2c1=O [SCR-06-03D, 8-Hydroxy-3-methyl-2-(4-(4-(trifluoromethoxy)benzyl)phenyl)quinolin-4(1H)-one]",73.1 % of cntls
3,"O=c1c(-c2ccc(Oc3ccc(OC(F)(F)F)cc3)cc2)c(CO)[nH]c2ccccc12 [PG208, 2-(Hydroxymethyl)-3-(4-(4-(trifluoromethoxy)phenoxy)phenyl)quinolin-4(1H)-one]",66.7 % of cntls
4,"Cc1c(-c2ccc(Cc3ccc(OC(F)(F)F)cc3)cc2)[nH]c2cc(O)ccc2c1=O [SCR-45-01D, 7-Hydroxy-3-methyl-2-(4-(4-(trifluoromethoxy)benzyl)phenyl)quinolin-4(1H)-one]",81.5 % of cntls
5,"COc1ccc2[nH]c(-c3ccc(Cc4ccc(OC(F)(F)F)cc4)cc3)c(C)c(=O)c2c1 [SCR-05-03, 6-Methoxy-3-methyl-2-(4-(4-(trifluoromethoxy)benzyl)phenyl)quinolin-4(1H)-one]",60.9 % of cntls
6,"Cc1c(-c2ccc(-c3ccc(C(F)(F)F)cc3)nc2)[nH]c2ccccc2c1=O [RKA 142, 3-Methyl-2-(6-(4-(trifluoromethyl)phenyl)pyridin-3-yl)quinolin-4(1H)-one]",>50 % of cntls
7,"Cc1c(-c2cccc(Cc3ccc(OC(F)(F)F)cc3)c2)[nH]c2ccccc2c1=O [CK-2-58, 3-Methyl-2-(3-(4-(trifluoromethoxy)benzyl)phenyl)quinolin-4(1H)-one]",82.3 % of cntls
8,3-Methyl-2-(1-(4-(trifluoromethoxy)phenethyl)-1H-pyrazol-4-yl)quinolin-4(1H)-one [WDH-2R-4],56.2 % of cntls
9,"CC(C)c1c(-c2cnn(Cc3ccc(OC(F)(F)F)cc3)c2)[nH]c2ccccc2c1=O [WDH-2G-6, 3-Isopropyl-2-(1-(4-(trifluoromethoxy)benzyl)-1H-pyrazol-4-yl)quinolin-4(1H)-one]",81.6 % of cntls
10,"Cc1c(-c2ccc(OC3CCC(F)(F)CC3)cc2)[nH]c2ccccc2c1=O [PG105, 2-(4-((4,4-Difluorocyclohexyl)oxy)phenyI)-3-methylquinolin-4(1H)-one]",71.5 % of cntls
11,"O=c1cc(-c2ccc(Cc3ccc(OC(F)(F)F)cc3)cc2)[nH]c2cc(O)c(F)cc12 [CK-3-68, 6-Fluoro-7-hydroxy-2-(4-(4-(trifluoromethoxy)benzyl)phenyl)quinolin-4(1H)-one]",71.7 % of cntls
12,"CCOC(=O)c1c(-c2ccc(-c3ccc(Cl)cc3)cc2)[nH]c2ccccc2c1=O [WDH-1V-9, Ethyl 2-(4′-chloro-[1,1′-biphenyl]-4-yl)-4-oxo-1,4-dihydroquinoline-3-carboxylate]",87.5 % of cntls
13,"Cc1c(-c2ccc(-c3ccccc3F)cc2)[nH]c2ccccc2c1=O [SL-3-3, 2-(2′-Fluoro-[1,1′-biphenyl]-4-yl)-3-methylquinolin-4(1H)-one]",62.2 % of cntls
14,"COc1ccc(Cc2ccc(-c3[nH]c4ccccc4c(=O)c3C)cc2)cc1 [CK-2-96, 2-(4-(4-Methoxybenzyl)phenyI)-3-methylquinolin-4(1H)-one]",85.7 % of cntls
15,"Cc1c(-c2ccc(-c3ccccc3C(F)(F)F)cc2)[nH]c2ccccc2c1=O [SL-2-36, 3-Methyl-2-(2′-(trifluoromethyl)-[1,1′-biphenyl]-4-yl)quinolin-4(1H)-one]",90.5 % of cntls
16,"Cc1c(-c2ccc(Cc3cccc(OCCN4CCOCC4)c3)cc2)[nH]c2ccccc2c1=O [PG201, 3-Methyl-2-(4-(3-(2-morpholinoethoxy)benzyl)phenyl)quinolin-4(1H)-one]",68.7 % of cntls
17,"Cc1c(-c2ccc(Oc3cccc(OCCN4CCOCC4)c3)cc2)[nH]c2ccccc2c1=O [CK-4-15, 3-Methyl-2-(4-(3-(2-morpholinoethoxy)phenoxy)phenyl)quinolin-4(1H)-one]",66.6 % of cntls
18,"COc1cccc2[nH]c(-c3ccc(-c4ccc(OC(F)(F)F)cc4)nc3)c(C)c(=O)c12 [SCR-04-04, 5-Methoxy-3-methyl-2-(6-(4-(trifluoromethoxy)phenyl)pyridin-3-yl)quinolin-4(1H)-one]",65.4 % of cntls
19,"Cc1c(-c2ccc(Oc3ccc(OC(F)(F)F)cc3)nc2)[nH]c2ccccc2c1=O [CK-3-22, 3-Methyl-2-(6-(4-(trifluoromethoxy)phenoxy)pyridin-3-yl)quinolin-4(1H)-one]",62.8 % of cntls

# Same assay, conditions: additional compounds; […]
row,Compound,IC50 [nM]
1,3-Methyl-2-(1-(4-(trifluoromethoxy)phenethyl)-1H-pyrazol-4-yl)quinolin-4(1H)-one [WDH-2R-4],380

# Test system: M. tuberculosis H37Rv
# Test: M. tuberculosis H37Rv growth inhibition screen at fixed 5 μM
# Assay type: cell-based, Mycobacterium tuberculosis
# Conditions: 5 μM compound
row,Compound,Growth of M. tuberculosis H37Rv (aerobic) at 5 μM of [compounds]
1,"COc1ccc2c(=O)c(C)c(-c3ccc(N4CCCCC4)cc3)[nH]c2c1 [RKA-310, 7-methoxy-3-methyl-2-(4-(piperidin-1-yl)phenyl)quinolin-4(1H)-one]",No growth
2,"Cc1c(-c2ccc(N3CCCCC3)cc2)[nH]c2cc(F)cc(F)c2c1=O [MTD-403, 5,7-Difluoro-3-methyl-2-(4-(piperidin-1-yl)phenyl)quinolin-4(1H)-one]",No growth

# Same assay, conditions: Mycobacterium tuberculosis, H37RV; aerobic; 5 μM compound; read-out: Growth of M. tuberculosis H37Rv (aerobic) at 5 μM of [compounds]
row,Compound,activity at 5 µM [%]
1,"CCOC(=O)c1c(-c2ccc(Cc3ccc(OC(F)(F)F)cc3)cc2)[nH]c2ccccc2c1=O [GN-1710, Ethyl 4-oxo-2-(4-(4-(trifluoromethoxy)benzyl)phenyI)-1,4-dihydroquinoline-3-carboxylate]",100
2,"Cc1c(-c2cnn(Cc3ccc(OC(F)(F)F)cc3)c2)[nH]c2ccccc2c1=O [WDH-2A-9, 3-Methyl-2-(1-(4-(trifluoromethoxy)benzyl)-1H-pyrazol-4-yl)quinolin-4(1H)-one]",97.4
3,"O=c1cc(-c2cnn(Cc3ccc(OC(F)(F)F)cc3)c2)[nH]c2ccccc12 [WDH-1W-5, 2-(1-(4-(Trifluoromethoxy)benzyl)-1H-pyrazol-4-yl)quinolin-4(1H)-one]",61.3
4,"Cc1c(-c2ccc(Oc3ccc(F)cc3)nc2)[nH]c2ccccc2c1=O [CK-3-14, 2-(6-(4-Fluorophenoxy)pyridin-3-yl)-3-methylquinolin-4(1H)-one]",100
5,"COc1ccc2c(=O)c(C)c(-c3ccc(Oc4ccc(OC(F)(F)F)cc4)nc3)[nH]c2c1 [RKA-259, 7-Methoxy-3-methyl-2-(6-(4-(trifluoromethoxy)phenoxy)pyridin-3-yl)quinolin-4(1H)-one]",12.6
6,"CCOC(=O)c1c(-c2ccc(-c3ccc(Cl)cc3)cc2)[nH]c2ccccc2c1=O [WDH-1U-10, Ethyl 2-(4′-chloro-[1,1′-biphenyl]-4-yl)-4-oxo-1,4-dihydroquinoline-3-carboxylate]",82.2
7,"COc1c(C)c(-c2ccc(Cc3ccccc3)cc2)nc2ccccc12 [CK-3-23, 2-(4-Benzylphenyl)-4-methoxy-3-methylquinoline]",6.6
8,"Cc1[nH]c2ccccc2c(=O)c1-c1ccc(Oc2ccc(OC(F)(F)F)cc2)cc1 [PG-203, 2-Methyl-3-(4-(4-(trifluoromethoxy)phenoxy)phenyl)quinolin-4(1H)-one]",100
9,"O=c1cc(-c2ccc(Cc3ccc(OC(F)(F)F)cc3)cc2)n(O)c2ccccc12 [RKA-73, 1-Hydroxy-2-(4-(4-(trifluoromethoxy)benzyl)phenyl)quinolin-4(1H)-one]",100
10,"Cc1c(-c2ccc(-c3ccc(C(F)(F)F)nc3)nc2)[nH]c2ccccc2c1=O [PG-128, 3-Methyl-2-(6′-(trifluoromethyl)-[2,3′-bipyridin]-5-yl)quinolin-4(1H)-one]",95.6
11,"Cc1c(-c2ccc(N3CCCCC3)cc2)[nH]c2ccccc2c1=O [RKA-307, 3-Methyl-2-(4-(piperidin-1-yl)phenyl)quinolin-4(1H)-one]",1.8

# Test system: Mycobacterium tuberculosis (Mtb) H37Rv
# Test: MGIT growth inhibition assay, time to positivity
# Assay type: cell-based
# Conditions: Table 6; compounds at 5x IC90; drug free control 11; followed to 74 days
row,Compound,Time to Positivity
1,CO[C@H]1/C=C/O[C@@]2(C)Oc3c(C)c(O)c4c(O)c(c(/C=N/N5CCN(C)CC5)c(O)c4c3C2=O)NC(=O)/C(C)=C\C=C\[C@H](C)[C@H](O)[C@@H](C)[C@@H](O)[C@@H](C)[C@H](OC(C)=O)[C@@H]1C [Rifampicin],No effect at 74 days
2,"NNC(=O)c1ccncc1 [INH, Isoniazid]",No effect at 74 days
3,Cc1ccc2nc(C)c(C(=O)NCc3ccc(Oc4ccc(F)cc4)cc3)n2c1 [AWE 402],15 days

# Same assay, conditions: Table 7 / FIG. 9; compounds at 5x IC90; 7.5×10^5 Mtb cells per tube; drug free control 8; followed to 80 days
row,Compound,Time to Positivity
1,"NNC(=O)c1ccncc1 [INH, Isoniazid]",No effect

# Same assay, conditions: Table 8; WDH-2G-6 3 μM, MTC420 5.5 μM, lansoprazole sulphide 26.5 μM, TMC207 250 nM; media control 10
row,Compound,Time to Positivity [days]
1,"Cc1c(OCC(F)(F)F)ccnc1CSc1nc2ccccc2[nH]1 [Lansoprazole sulphide, lansoprazole sulfide]",13
2,"CC(C)c1c(-c2cnn(Cc3ccc(OC(F)(F)F)cc3)c2)[nH]c2ccccc2c1=O [WDH-2G-6, 3-Isopropyl-2-(1-(4-(trifluoromethoxy)benzyl)-1H-pyrazol-4-yl)quinolin-4(1H)-one]",10
3,Cc1ccc2nc(C)c(C(=O)NCc3ccc(Oc4ccc(F)cc4)cc3)n2c1 [AWE 402],13

# Same assay, conditions: lansoprazole sulfide 26.5 μM, CK-2-63 35 μM; drug-free control 10 days
row,Compound,Time to positivity (TtP) [days]
1,"Cc1c(OCC(F)(F)F)ccnc1CSc1nc2ccccc2[nH]1 [Lansoprazole sulphide, lansoprazole sulfide]",13
